Experimental data taken from PMC12884720, “Gabpα‐Pparγ Complex Determines Glycolytic Capacity and Lactic Acid Homeostasis in Brown Fat” (Advanced Science, 2025).
Residues, ends and D or L forms follow the SMILES beside them. *: point of attachment. FITC = O=C1OC2(c3ccc(O)cc3Oc3cc(O)ccc32)c2ccc(NC(=S)*)cc21

Assays:
[1] = system: wild‐type mice; assay: BAT mass, body weight, tissue mass and morphology of mice after BAT injection of peptide; assay type: in vivo, wild‐type C57BL/6J mice; settings: GPCBi 5.5 mg kg^−1 orthotopically into BAT
Method: (§1) The mouse experiments were approved by the Institutional Animal Care and Use Committee of the Institute of Model Animals of Tongji Hospital, Huazhong University of Science and Technology, and were performed in compliance with all relevant ethical regulations (approval number: TJH‐202110044). Unless otherwise noted, the mice were housed in a pathogen‐free and climate‐controlled environment (22–25 °C, 40‐60% humidity) and were given free access to food and water on a 12 h light/dark cycle. Wild‐type C57BL/6J mice were obtained from Beijing Huafukang Bioscience Co., Ltd. (Beijing, China). Gabpa ^flox/flox , Adipoq^Cre , and Ucp1^Cre mice were purchased from Cyagen Biosciences, Inc. (Guangzhou, China). For GPCBi treatment, wild‐type mice were orthotopically injected GPCBi (FITC‐[…]; 5.5 mg kg^−1) or scramble peptide (FITC‐[…]; 5.5 mg kg^−1) into the BAT at room temperature for one week. […] For cold exposure, the mice were caged individually and exposed to a temperature of 10 or 4 °C. The mice were euthanized by CO2 inhalation. For studies with specific diets, five‐week‐old male Gabpα ^Adipo KI mice and their respective littermate control mice were fed a HFD (D12492, Research Diets; 60 kcal% fat, 20 kcal% carbohydrates, and 20 kcal% protein; Medicience Ltd., Jiangsu, China) at ambient temperature. The food was changed every week. Body weight was measured every week, and tissue weights were measured at the time of euthanasia.

[2] = system: wild‐type mice; assay: Fasting blood glucose; assay type: in vivo, wild‐type C57BL/6J mice; settings: GPCBi 5.5 mg kg^−1 orthotopically into BAT; n = 5 (Figure S4h)
Method: as §1, with “For studies with specific diets, five‐week‐old male Gabpα ^Adipo KI mice and their respective littermate control mice were fed a HFD (D12492, Research Diets; 60 kcal% fat, 20 kcal% carbohydrates, and 20 kcal% protein; Medicience Ltd., Jiangsu, China) at ambient temperature. The food was changed every week.” left out

[3] = system: wild‐type mice; assay: Lactate levels in BAT and serum; assay type: in vivo, wild‐type C57BL/6J mice; settings: GPCBi 5.5 mg kg^−1 in BAT, 23 °C for 7 days then 10 °C for 2 days
Method: as §1, with “For studies with specific diets, five‐week‐old male Gabpα ^Adipo KI mice and their respective littermate control mice were fed a HFD (D12492, Research Diets; 60 kcal% fat, 20 kcal% carbohydrates, and 20 kcal% protein; Medicience Ltd., Jiangsu, China) at ambient temperature. The food was changed every week.” left out, “euthanasia. […]” for “euthanasia.”

[4] = system: wild‐type mice; assay: Oxygen consumption and heat production (CLAMS); assay type: in vivo, wild‐type C57BL/6J mice; settings: GPCBi‐injected mice, room temperature, n = 4 (Figure 4n,o; Figure S4i,j)
Method: The mouse experiments were approved by the Institutional Animal Care and Use Committee of the Institute of Model Animals of Tongji Hospital, Huazhong University of Science and Technology, and were performed in compliance with all relevant ethical regulations (approval number: TJH‐202110044). Unless otherwise noted, the mice were housed in a pathogen‐free and climate‐controlled environment (22–25 °C, 40‐60% humidity) and were given free access to food and water on a 12 h light/dark cycle. Wild‐type C57BL/6J mice were obtained from Beijing Huafukang Bioscience Co., Ltd. (Beijing, China). Gabpa ^flox/flox , Adipoq^Cre , and Ucp1^Cre mice were purchased from Cyagen Biosciences, Inc. (Guangzhou, China). For GPCBi treatment, wild‐type mice were orthotopically injected GPCBi (FITC‐[…]; 5.5 mg kg^−1) or scramble peptide (FITC‐[…]; 5.5 mg kg^−1) into the BAT at room temperature for one week. […] Body weight was measured every week, and tissue weights were measured at the time of euthanasia.
Three‐month‐old mice (Gabpα ^Ucp1 KO, Gabpα ^Adipo KI, peptide GPCBi, and respective littermate control mice) were subjected to whole‐body energy expenditure measurements in metabolic chambers. Oxygen consumption and heat production were monitored via a Comprehensive Laboratory Animal Monitoring System (CLAMS, Columbus Instruments) at specific temperatures. […]

[5] = system: BAT from wild‐type mice; assay: Gene expression (mRNA, protein) in BAT of treated mice; assay type: in vivo, wild‐type C57BL/6J mice
Method: Reverse transcription of cDNA was completed via the use of 1 µg of RNA with HiScript II Q RT SuperMix for real‐time quantitative PCR (qPCR) (Vazyme Biotech, Nanjing, China, Cat# R222) according to the provided protocols. qPCR was performed with a real‐time PCR system on a QuantStudio1 (Applied Biosystems) using Taq Pro Universal SYBR qPCR Master Mix (Vazyme Biotech., Nanjing, China, Cat# Q712‐02). Relative transcript levels were calculated via the comparative C T method; 36b4 was used as the internal control for cells, whereas Hprt was used as the internal control for tissues. The primer sequences are listed in Table S1 (Supporting Information). The mRNAs from the BAT of control and Gabpα ^Ucp1 KO mice were extracted and subjected to commercial RNA‐seq (BGI Genomics Co., Ltd.) for further DEG and KEGG pathway enrichment analysis. In detail, RNA quality was examined with Fragment (Agilent). High‐quality RNA (RIN > 8.0) was used to library construction. RNA‐seq was performed at BGI Genomics (China) using the Illumina NovaSeq 6000 platform. Clean reads were aligned to the mouse reference genome (GRCm39) using Bowtie2, and transcript quantification was performed with RSEM. […] The RNA‐seq data generated in this study have been deposited in the National Center for Biotechnology Information Sequence Read Archive database under accession code PRJNA1358056.
Cells and tissues were lysed in RIPA lysis buffer (Beyotime, Shanghai, China, Cat# P0013B) containing a protease inhibitor cocktail (MedChem Express, NJ, USA, Cat# HY‐K0010) according to the manufacturer's protocol. Equal amounts of protein were separated on SDS‒PAGE gels and transferred to PVDF membranes (Millipore). The PVDF membranes were blocked in 5% skim milk for 1 h at room temperature and then incubated with primary antibody overnight at 4 °C. The membranes were washed three times with TBST and then incubated with HRP‐conjugated secondary antibodies for 1 h at room temperature. After washing three times, the Western blots were imaged via an enhanced chemiluminescence system.

[6] = system: Gabpα–Pparγ interaction; assay: Co-IP of His-Gabpα and Myc-Pparγ with peptide GPCBi; assay type: binding; settings: HEK293T cells cotransfected with His‐Gabpα and Myc‐Pparγ, GPCBi 30 µM, 48 h, anti‐His IP (Figure S4c)

SMILES: CC[C@H](C)[C@H](NC(=O)[C@H](CCCNC(=N)N)NC(=O)[C@H](CS)NC(=O)[C@H](CC(N)=O)NC(=O)[C@H](CC(C)C)NC(=O)[C@H](CC(=O)O)NC(=O)[C@H](CS)NC(=O)[C@H](CCCNC(=N)N)NC(=O)[C@H](CC(=O)O)NC(=O)[C@H](Cc1ccc(O)cc1)NC(=O)[C@@H](NC(=O)[C@H](CC(C)C)NC(=O)[C@H](CCCCN)NC(=O)[C@H](CC(C)C)NC(=O)[C@H](CCCNC(=N)N)NC(=O)[C@@H](NC(=O)[C@@H](NC(=O)[C@H](CCCNC(=N)N)NC(=O)[C@H](CCCNC(=N)N)NC(=O)[C@H](CCCNC(=N)N)NC(=O)[C@H](CCCNC(=N)N)NC(=O)[C@H](CCCNC(=N)N)NC(=O)[C@H](CCC(N)=O)NC(=O)[C@H](CCCNC(=N)N)NC(=O)[C@H](CCCNC(=N)N)NC(=O)[C@H](CCCCN)NC(=O)[C@H](CCCCN)NC(=O)[C@H](CCCNC(=N)N)NC(=O)CNC(=O)[C@H](Cc1ccc(O)cc1)NC(=S)Nc1ccc2c(c1)C(=O)OC21c2ccc(O)cc2Oc2cc(O)ccc21)[C@@H](C)O)[C@@H](C)CC)[C@@H](C)CC)C(=O)N[C@@H](Cc1c[nH]cn1)C(=O)N[C@@H](CCCCN)C(=O)N[C@@H](CCCCN)C(=O)N[C@@H](CO)C(=O)N[C@@H](CCCNC(=N)N)C(=O)N[C@@H](CC(N)=O)C(=O)N[C@@H](CCCCN)C(=O)O [GPCBi] ({FITC}-YGRKKRRQRRRRRTIRLKLIYDRCDLNCRIHKKSRNK-OH; N-terminus and C-terminus assumed)
- BAT morphology ([1]; one week (Figure S4f)): morphological changes
- body weight or the morphology or tissue mass of IngWAT, EpiWAT, or the liver ([1]; one week, n = 4 (Figure S4e-g)): no significant changes
- BAT mass ([1]; room temperature, one week, versus scramble peptide, n = 4 (Figure S4g)): reduced BAT mass
- fasting blood glucose levels [2]: markedly increased
- production of lactate in brown fat ([3]; n = 3 (Figure 5c)): substantially suppressed
- lactate in circulation (serum) ([3]; n = 3 (Figure 5d)): substantially suppressed
- oxygen consumption and heat production [4]: significant decreases
- Ldh and Ucp1 expression in BAT ([5]; GPCBi 5.5 mg kg^−1 in BAT, 23 °C for 7 days then 10 °C for 2 days, mRNA n = 4 (Figure 5e,f)): effectively downregulated
- gene expressions of Eno1, Pkm2, and Ucp1 in BAT ([5]; GPCBi 5.5 mg kg^−1 orthotopically into BAT, 7 days, control n = 3, GPCBi n = 4 (Figure 4l,m)): decreased
- regulatory gene expression of the futile lipid cycle, BAT ([5]; GPCBi in BAT, 23 °C for 7 days to 10 °C for 2 days, control n = 4, GPCBi n = 3 (Figure S5a)): substantially impaired
- binding capacity between Gabpα and Pparγ [6]: decreased
